Measurements published in paper doi:10.1101/2023.10.20.563248v1 (biorxiv, 2023).

What was measured:
Conditions in all cases: 1 µM; inhibitor
[1] = target: AKT2 (Homo sapiens, UniProt P31751)
[2] = target: FGFR4 (Homo sapiens, UniProt P22455)
[3] = target: CK1g1 (Homo sapiens, UniProt Q9HCP0)
[4] = target: FES (Homo sapiens, UniProt P07332)
[5] = target: MAP4K2 (Homo sapiens, UniProt Q12851)
[6] = target: TTBK2 (Homo sapiens, UniProt Q6IQ55)
[7] = target: PLK3 (Homo sapiens, UniProt Q9H4B4)
[8] = target: CDK6 (Homo sapiens, UniProt Q00534)
[9] = target: TSK2 (Homo sapiens, UniProt Q96PF2)
[10] = target: EPHA6 (Homo sapiens, UniProt Q9UF33)
[11] = target: CSK (Homo sapiens, UniProt P41240)
[12] = target: DAPK1 (Homo sapiens, UniProt P53355)
[13] = target: CDK2 (Homo sapiens, UniProt P24941)
[14] = target: EEF2K (Homo sapiens, UniProt O00418)
[15] = target: CDK19 (Homo sapiens, UniProt Q9BWU1)
[16] = target: MAP3K1 (Homo sapiens, UniProt Q13233)
[17] = target: CDK3 (Homo sapiens, UniProt Q00526)
[18] = target: NLK (Homo sapiens, UniProt Q9UBE8)
[19] = target: PRKG1 (Homo sapiens, UniProt Q13976)
[20] = target: CDK7 (Homo sapiens, UniProt P50613)
[21] = target: RPS6KB1 (Homo sapiens, UniProt P23443)
[22] = target: AKT3 (Homo sapiens, UniProt Q9Y243)
[23] = target: NEK9 (Homo sapiens, UniProt Q8TD19)
[24] = target: CAMK2B (Homo sapiens, UniProt Q13554)
[25] = target: PKCb (Homo sapiens, UniProt P05771)
[26] = target: ROS (Homo sapiens, UniProt P08922)
[27] = target: ACVRL1 (Homo sapiens, UniProt P37023)
[28] = target: CDK18 (Homo sapiens, UniProt Q07002)
[29] = target: SRMS (Homo sapiens, UniProt Q9H3Y6)
[30] = target: ERK1 (Homo sapiens, UniProt P27361)
[31] = target: TAOK2 (Homo sapiens, UniProt Q9UL54)
Sequence of TAOK2 (Q9UL54 whole entry): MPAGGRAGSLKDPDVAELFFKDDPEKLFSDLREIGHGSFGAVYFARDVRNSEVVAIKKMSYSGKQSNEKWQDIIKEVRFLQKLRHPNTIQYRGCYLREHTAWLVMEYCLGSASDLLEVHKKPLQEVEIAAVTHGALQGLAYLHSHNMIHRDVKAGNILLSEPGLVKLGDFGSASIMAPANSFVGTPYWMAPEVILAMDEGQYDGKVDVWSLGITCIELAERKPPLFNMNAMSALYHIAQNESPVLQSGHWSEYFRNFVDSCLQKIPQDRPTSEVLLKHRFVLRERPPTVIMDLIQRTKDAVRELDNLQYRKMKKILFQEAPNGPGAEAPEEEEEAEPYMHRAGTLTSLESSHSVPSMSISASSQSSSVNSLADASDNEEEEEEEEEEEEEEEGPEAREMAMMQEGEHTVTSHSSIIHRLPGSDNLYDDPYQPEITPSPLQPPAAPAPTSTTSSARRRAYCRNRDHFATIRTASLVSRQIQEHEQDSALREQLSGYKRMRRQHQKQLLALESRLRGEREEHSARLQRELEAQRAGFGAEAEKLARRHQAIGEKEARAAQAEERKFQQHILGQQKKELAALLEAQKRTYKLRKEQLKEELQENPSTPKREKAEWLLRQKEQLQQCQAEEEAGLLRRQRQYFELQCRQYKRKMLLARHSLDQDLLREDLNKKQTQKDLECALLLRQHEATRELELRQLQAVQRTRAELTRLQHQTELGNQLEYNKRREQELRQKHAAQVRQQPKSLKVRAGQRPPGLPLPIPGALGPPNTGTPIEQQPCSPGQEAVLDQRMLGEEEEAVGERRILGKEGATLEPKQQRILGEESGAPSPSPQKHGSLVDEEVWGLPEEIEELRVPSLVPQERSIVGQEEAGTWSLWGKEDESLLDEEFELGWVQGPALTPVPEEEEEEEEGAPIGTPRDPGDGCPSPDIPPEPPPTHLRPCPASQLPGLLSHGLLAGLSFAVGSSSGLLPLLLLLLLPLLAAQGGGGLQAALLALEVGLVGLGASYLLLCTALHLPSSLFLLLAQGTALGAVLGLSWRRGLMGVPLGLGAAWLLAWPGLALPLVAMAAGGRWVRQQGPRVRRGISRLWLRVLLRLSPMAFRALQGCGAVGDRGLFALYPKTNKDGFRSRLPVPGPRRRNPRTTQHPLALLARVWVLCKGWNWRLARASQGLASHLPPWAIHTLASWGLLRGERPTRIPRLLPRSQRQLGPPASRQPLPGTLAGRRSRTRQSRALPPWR

Sequence of PLK3 (Q9H4B4 whole entry): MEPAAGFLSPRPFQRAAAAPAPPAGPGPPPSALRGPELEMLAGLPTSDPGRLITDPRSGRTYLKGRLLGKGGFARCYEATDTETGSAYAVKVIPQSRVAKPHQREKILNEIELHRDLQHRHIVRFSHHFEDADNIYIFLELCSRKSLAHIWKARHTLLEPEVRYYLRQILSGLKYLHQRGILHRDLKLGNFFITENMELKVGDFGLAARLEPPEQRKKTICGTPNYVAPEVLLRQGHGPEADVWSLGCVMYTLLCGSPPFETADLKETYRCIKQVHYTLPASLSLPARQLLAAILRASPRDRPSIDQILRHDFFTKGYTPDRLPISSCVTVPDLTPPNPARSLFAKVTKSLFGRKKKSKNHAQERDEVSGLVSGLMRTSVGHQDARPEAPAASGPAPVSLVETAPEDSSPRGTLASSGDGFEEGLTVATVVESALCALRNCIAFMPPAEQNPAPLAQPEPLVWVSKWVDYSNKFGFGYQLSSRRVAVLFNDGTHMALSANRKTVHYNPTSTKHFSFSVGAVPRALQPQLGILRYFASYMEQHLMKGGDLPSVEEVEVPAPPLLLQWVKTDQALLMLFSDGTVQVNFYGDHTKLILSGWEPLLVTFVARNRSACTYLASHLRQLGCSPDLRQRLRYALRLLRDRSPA
Sequence of ERK1 (P27361 whole entry): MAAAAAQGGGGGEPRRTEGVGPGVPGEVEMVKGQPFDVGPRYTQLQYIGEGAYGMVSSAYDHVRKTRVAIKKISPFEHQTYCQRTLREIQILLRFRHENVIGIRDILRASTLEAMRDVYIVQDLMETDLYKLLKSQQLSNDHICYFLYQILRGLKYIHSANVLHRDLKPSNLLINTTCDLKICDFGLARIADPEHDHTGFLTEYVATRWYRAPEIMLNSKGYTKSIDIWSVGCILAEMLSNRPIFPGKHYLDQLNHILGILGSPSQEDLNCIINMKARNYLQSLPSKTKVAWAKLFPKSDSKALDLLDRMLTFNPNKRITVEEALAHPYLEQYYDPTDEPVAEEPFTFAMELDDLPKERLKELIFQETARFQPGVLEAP
Sequence of NEK9 (Q8TD19 whole entry): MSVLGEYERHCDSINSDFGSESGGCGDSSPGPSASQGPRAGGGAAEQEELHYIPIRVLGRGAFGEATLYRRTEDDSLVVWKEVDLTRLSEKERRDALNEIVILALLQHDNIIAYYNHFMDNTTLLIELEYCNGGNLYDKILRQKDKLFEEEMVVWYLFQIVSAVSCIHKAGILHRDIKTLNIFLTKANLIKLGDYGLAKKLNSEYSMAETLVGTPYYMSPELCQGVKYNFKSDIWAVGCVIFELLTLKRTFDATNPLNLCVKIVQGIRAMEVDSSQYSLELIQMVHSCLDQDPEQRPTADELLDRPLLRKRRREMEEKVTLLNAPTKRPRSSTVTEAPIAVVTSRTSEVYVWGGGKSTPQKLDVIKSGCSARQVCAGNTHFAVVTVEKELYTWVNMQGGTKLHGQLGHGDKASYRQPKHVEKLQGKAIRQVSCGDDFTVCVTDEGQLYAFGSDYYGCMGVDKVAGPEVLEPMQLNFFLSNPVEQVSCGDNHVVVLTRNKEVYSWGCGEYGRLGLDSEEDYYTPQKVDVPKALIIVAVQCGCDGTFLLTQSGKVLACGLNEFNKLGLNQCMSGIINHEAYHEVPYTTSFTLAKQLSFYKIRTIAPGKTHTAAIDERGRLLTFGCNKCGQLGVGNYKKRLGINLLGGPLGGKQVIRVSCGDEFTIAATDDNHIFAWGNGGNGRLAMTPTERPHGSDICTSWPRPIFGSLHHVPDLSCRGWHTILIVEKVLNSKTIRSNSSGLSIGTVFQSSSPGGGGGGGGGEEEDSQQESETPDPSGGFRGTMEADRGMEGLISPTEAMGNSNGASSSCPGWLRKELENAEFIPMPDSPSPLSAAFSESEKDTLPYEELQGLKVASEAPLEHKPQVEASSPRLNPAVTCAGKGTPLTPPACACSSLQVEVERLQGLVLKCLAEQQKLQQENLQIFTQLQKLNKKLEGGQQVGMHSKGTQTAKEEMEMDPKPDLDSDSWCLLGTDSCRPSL
Sequence of CDK18 (Q07002 whole entry): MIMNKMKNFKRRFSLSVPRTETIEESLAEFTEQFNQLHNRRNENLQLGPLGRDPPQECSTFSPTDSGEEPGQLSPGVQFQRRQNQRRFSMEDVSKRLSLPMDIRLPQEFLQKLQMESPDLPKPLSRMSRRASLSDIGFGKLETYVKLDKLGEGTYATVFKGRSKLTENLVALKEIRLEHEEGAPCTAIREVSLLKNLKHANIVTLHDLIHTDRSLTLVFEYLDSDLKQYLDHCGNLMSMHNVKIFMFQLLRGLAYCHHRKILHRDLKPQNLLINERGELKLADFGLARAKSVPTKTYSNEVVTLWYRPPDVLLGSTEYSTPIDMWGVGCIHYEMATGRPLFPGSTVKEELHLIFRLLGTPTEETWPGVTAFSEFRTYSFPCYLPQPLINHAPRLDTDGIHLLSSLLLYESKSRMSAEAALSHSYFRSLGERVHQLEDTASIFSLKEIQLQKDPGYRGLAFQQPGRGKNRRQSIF
Sequence of FGFR4 (P22455 whole entry): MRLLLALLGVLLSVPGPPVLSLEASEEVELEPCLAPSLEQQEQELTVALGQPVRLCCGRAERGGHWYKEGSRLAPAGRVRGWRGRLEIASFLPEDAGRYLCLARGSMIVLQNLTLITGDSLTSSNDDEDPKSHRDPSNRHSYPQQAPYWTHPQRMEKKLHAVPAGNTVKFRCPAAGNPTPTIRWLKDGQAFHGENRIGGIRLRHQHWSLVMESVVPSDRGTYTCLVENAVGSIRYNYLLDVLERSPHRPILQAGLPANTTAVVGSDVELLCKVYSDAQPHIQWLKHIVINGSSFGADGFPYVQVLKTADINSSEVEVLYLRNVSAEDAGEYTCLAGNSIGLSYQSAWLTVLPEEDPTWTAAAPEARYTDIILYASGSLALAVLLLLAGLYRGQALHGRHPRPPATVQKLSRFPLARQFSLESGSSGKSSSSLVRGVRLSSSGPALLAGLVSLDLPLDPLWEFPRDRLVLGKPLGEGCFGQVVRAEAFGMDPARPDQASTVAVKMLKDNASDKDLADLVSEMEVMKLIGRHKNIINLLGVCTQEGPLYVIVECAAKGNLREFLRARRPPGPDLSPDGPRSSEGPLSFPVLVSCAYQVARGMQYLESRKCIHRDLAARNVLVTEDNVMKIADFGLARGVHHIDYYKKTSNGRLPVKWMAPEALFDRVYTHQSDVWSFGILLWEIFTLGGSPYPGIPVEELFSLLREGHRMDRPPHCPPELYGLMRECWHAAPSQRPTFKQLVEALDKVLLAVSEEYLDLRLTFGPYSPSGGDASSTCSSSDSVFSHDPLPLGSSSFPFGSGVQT
Sequence of CDK7 (P50613 whole entry): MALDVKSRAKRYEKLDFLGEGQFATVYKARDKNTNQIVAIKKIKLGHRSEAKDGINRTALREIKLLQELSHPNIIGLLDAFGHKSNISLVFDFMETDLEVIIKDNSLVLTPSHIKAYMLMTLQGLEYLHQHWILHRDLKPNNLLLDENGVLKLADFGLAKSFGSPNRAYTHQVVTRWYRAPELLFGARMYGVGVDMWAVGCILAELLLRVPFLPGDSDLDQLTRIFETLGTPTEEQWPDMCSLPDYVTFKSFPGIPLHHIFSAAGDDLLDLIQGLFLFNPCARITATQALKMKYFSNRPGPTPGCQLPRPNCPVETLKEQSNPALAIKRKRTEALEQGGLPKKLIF

21c Remaining activity, percent of control [%] [1]: 90.3%
21c Remaining activity, percent of control [%] [2]: 96.9%
21c Remaining activity, percent of control [%] [3]: 102.2%
21c Remaining activity, percent of control [%] [4]: 100.7%
21c Remaining activity, percent of control [%] [5]: 112.8%
21c Remaining activity, percent of control [%] [6]: 109.9%
21c Remaining activity, percent of control [%] [7]: 102.7%
21c Remaining activity, percent of control [%] [8]: 105.2%
21c Remaining activity, percent of control [%] [9]: 93.8%
21c Remaining activity, percent of control [%] [10]: 97.4%
21c Remaining activity, percent of control [%] [11]: 73.5%
21c Remaining activity, percent of control [%] [12]: 94.0%
21c Remaining activity, percent of control [%] [13]: 103.0%
21c Remaining activity, percent of control [%] [14]: 114.2%
21c Remaining activity, percent of control [%] [15]: 92.8%
21c Remaining activity, percent of control [%] [16]: 100.1%
21c Remaining activity, percent of control [%] [17]: 95.9%
21c Remaining activity, percent of control [%] [18]: 111.9%
21c Remaining activity, percent of control [%] [19]: 94.8%
21c Remaining activity, percent of control [%] [20]: 112.5%
21c Remaining activity, percent of control [%] [21]: 86.2%
21c Remaining activity, percent of control [%] [22]: 102.5%
21c Remaining activity, percent of control [%] [24]: 88.8%
21c Remaining activity, percent of control [%] [25]: 82.5%
21c Remaining activity, percent of control [%] [26]: 109.6%
21c Remaining activity, percent of control [%] [27]: 91.0%
21c Remaining activity, percent of control [%] [28]: 96.7%
21c Remaining activity, percent of control [%] [29]: 81.5%
21c Remaining activity, percent of control [%] [30]: 85.8%
21c Remaining activity, percent of control [%] [31]: 93.6%
Compound: O=C1NCCCCCNc2nc(c3ccccc3n2)Nc2cc1[nH]n2 [21c, (Z)-3^1H-2,5,11-triaza-1(4,2)-quinazolina-3(3,5)-pyrazolacycloundecaphan-4-one]
21c Remaining activity, percent of control [%] [23]: 109.8%
